In the supplement of paper PMC10883282:
± gives the standard deviation of the averaged measurements.

Experiments:
Experiment in all cases: relative viability vs DMSO control (72 h) (fraction); higher = more viable cells
[1] = test system: RD
Summary of the method: (§1)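 Sarcoma cell lines in 384-well plates, seeded to reach 80–90% confluence, were given compound after 24 h and kept 72 h at 37 °C, 5% CO2, with 0.1% DMSO vehicle and a 5 µM positive control. Relative viability came from ATPLite as percent growth, averaged over up to triplicate wells. On the rescaled values, 1 equals full and 0 equals none.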

[2] = test system: SK-ES-1
Summary of the method: as §1

[3] = test system: HT1080
Summary of the method: as §1

[4] = test system: KHOS-240S
Summary of the method: as §1

[5] = test system: SK-LMS-1
Summary of the method: as §1

[6] = test system: VA-ES-BJ
Summary of the method: as §1

[7] = test system: MES-SA
Summary of the method: as §1

[8] = test system: G401
Summary of the method: as §1

[9] = test system: SW1353
Summary of the method: as §1

[10] = test system: RD-ES
Summary of the method: as §1

[11] = test system: SYO-1
Summary of the method: as §1

[12] = test system: SW982
Summary of the method: as §1

Work on `CN1CC[C@@H](NC(=O)Nc2ccc(C#N)cc2)C[C@@H]1c1nc2ccccc2[nH]1` [Glasdegib] yielded a relative viability ([1]; 0.00017 µM) of 1.02 ± 0.021, a relative viability ([1]; 0.00051 µM) of 1.03 ± 0.05 and a relative viability ([1]; 0.00152 µM) of 1.05 ± 0.065. For the same compound, the relative viability ([1]; 0.00457 µM) was 1.04 ± 0.065, the relative viability ([1]; 0.01372 µM) was 1.02 ± 0.044 and the relative viability ([1]; 0.04115 µM) was 0.99 ± 0.021. It also gave a relative viability ([1]; 0.1235 µM) of 0.988 ± 0.016, a relative viability ([1]; 0.3704 µM) of 0.983 ± 0.057 and a relative viability ([1]; 1.111 µM) of 1.02 ± 0.095. For the same compound, the relative viability ([1]; 3.333 µM) was 1 ± 0.08, the relative viability ([1]; 10 µM) was 1.06 ± 0.038 and the relative viability ([2]; 0.00017 µM) was 1 ± 0.042. It also gave a relative viability ([2]; 0.00051 µM) of 1.03 ± 0.049, a relative viability ([2]; 0.00152 µM) of 1 ± 0.021 and a relative viability ([2]; 0.00457 µM) of 1.02 ± 0.018. The relative viability ([2]; 0.01372 µM) was 1.01 ± 0.062, the relative viability ([2]; 0.04115 µM) was 0.965 ± 0.034 and the relative viability ([2]; 0.1235 µM) was 0.944 ± 0.086. It also gave a relative viability ([2]; 0.3704 µM) of 0.975 ± 0.046, a relative viability ([2]; 1.111 µM) of 0.944 ± 0.057 and a relative viability ([2]; 3.333 µM) of 0.77 ± 0.025. For the same compound, the relative viability ([2]; 10 µM) was 0.696 ± 0.024, the relative viability ([3]; 0.00017 µM) was 1.07 ± 0.034 and the relative viability ([3]; 0.00051 µM) was 1.091 ± 0.003. It also gave a relative viability ([3]; 0.00152 µM) of 1.112 ± 0.0024, a relative viability ([3]; 0.00457 µM) of 1.09 ± 0.038 and a relative viability ([3]; 0.01372 µM) of 1.09 ± 0.026. It also gave a relative viability ([3]; 0.04115 µM) of 1.112 ± 0.0081, a relative viability ([3]; 0.1235 µM) of 1.1 ± 0.018 and a relative viability ([3]; 0.3704 µM) of 1.087 ± 0.0067. It also gave a relative viability ([3]; 1.111 µM) of 1.07 ± 0.041, a relative viability ([3]; 3.333 µM) of 1.054 ± 0.0082 and a relative viability ([3]; 10 µM) of 1.01 ± 0.053. It also gave a relative viability ([4]; 0.00017 µM) of 1.04 ± 0.028, a relative viability ([4]; 0.00051 µM) of 1.061 ± 0.0035 and a relative viability ([4]; 0.00152 µM) of 1.08 ± 0.015. It also gave a relative viability ([4]; 0.00457 µM) of 1.08 ± 0.042, a relative viability ([4]; 0.01372 µM) of 1.06 ± 0.05 and a relative viability ([4]; 0.04115 µM) of 1.06 ± 0.018. It also gave a relative viability ([4]; 0.1235 µM) of 1.05 ± 0.019, a relative viability ([4]; 0.3704 µM) of 1.065 ± 0.0064 and a relative viability ([4]; 1.111 µM) of 1.05 ± 0.015. It also gave a relative viability ([4]; 3.333 µM) of 1.05 ± 0.017, a relative viability ([4]; 10 µM) of 1.03 ± 0.043 and a relative viability ([5]; 0.00017 µM) of 1.08 ± 0.031. It also gave a relative viability ([5]; 0.00051 µM) of 1.09 ± 0.03, a relative viability ([5]; 0.00152 µM) of 1.111 ± 0.011 and a relative viability ([5]; 0.00457 µM) of 1.07 ± 0.018. The relative viability ([5]; 0.01372 µM) was 1.14 ± 0.056, the relative viability ([5]; 0.04115 µM) was 1.11 ± 0.04 and the relative viability ([5]; 0.1235 µM) was 1.09 ± 0.035. For the same compound, the relative viability ([5]; 0.3704 µM) was 1.06 ± 0.037, the relative viability ([5]; 1.111 µM) was 1.07 ± 0.015 and the relative viability ([5]; 3.333 µM) was 1.02 ± 0.028. The relative viability ([5]; 10 µM) was 1.03 ± 0.036, the relative viability ([6]; 0.00017 µM) was 1.07 ± 0.059 and the relative viability ([6]; 0.00051 µM) was 1.07 ± 0.016. For the same compound, the relative viability ([6]; 0.00152 µM) was 1.06 ± 0.048, the relative viability ([6]; 0.00457 µM) was 1.068 ± 0.01 and the relative viability ([6]; 0.01372 µM) was 1.07 ± 0.027. It also gave a relative viability ([6]; 0.04115 µM) of 1.06 ± 0.035, a relative viability ([6]; 0.1235 µM) of 1.05 ± 0.022 and a relative viability ([6]; 0.3704 µM) of 1.04 ± 0.019. It also gave a relative viability ([6]; 1.111 µM) of 1.01 ± 0.036, a relative viability ([6]; 3.333 µM) of 1.08 ± 0.015 and a relative viability ([6]; 10 µM) of 1.06 ± 0.037. The relative viability ([7]; 0.00017 µM) was 0.945 ± 0.011, the relative viability ([7]; 0.00051 µM) was 0.956 ± 0.026 and the relative viability ([7]; 0.00152 µM) was 0.976 ± 0.015. It also gave a relative viability ([7]; 0.00457 µM) of 0.956 ± 0.029, a relative viability ([7]; 0.01372 µM) of 0.952 ± 0.054 and a relative viability ([7]; 0.04115 µM) of 0.915 ± 0.028. The relative viability ([7]; 0.1235 µM) was 0.938 ± 0.04, the relative viability ([7]; 0.3704 µM) was 0.919 ± 0.016 and the relative viability ([7]; 1.111 µM) was 0.926 ± 0.066. The relative viability ([7]; 3.333 µM) was 0.935 ± 0.029, the relative viability ([7]; 10 µM) was 0.85 ± 0.024 and the relative viability ([8]; 0.00017 µM) was 1.04 ± 0.022. For the same compound, the relative viability ([8]; 0.00051 µM) was 1.03 ± 0.028, the relative viability ([8]; 0.00152 µM) was 1.02 ± 0.044 and the relative viability ([8]; 0.00457 µM) was 1.02 ± 0.016. It also gave a relative viability ([8]; 0.01372 µM) of 1.03 ± 0.04, a relative viability ([8]; 0.04115 µM) of 1.03 ± 0.035 and a relative viability ([8]; 0.1235 µM) of 1.02 ± 0.013. The relative viability ([8]; 0.3704 µM) was 0.986 ± 0.028, the relative viability ([8]; 1.111 µM) was 0.997 ± 0.022 and the relative viability ([8]; 3.333 µM) was 0.949 ± 0.012. It also gave a relative viability ([8]; 10 µM) of 0.934 ± 0.028, a relative viability ([9]; 0.00017 µM) of 1.1 ± 0.013 and a relative viability ([9]; 0.00051 µM) of 1.1 ± 0.015. The relative viability ([9]; 0.00152 µM) was 1.08 ± 0.037, the relative viability ([9]; 0.00457 µM) was 1.1 ± 0.031 and the relative viability ([9]; 0.01372 µM) was 1.09 ± 0.038. The relative viability ([9]; 0.04115 µM) was 1.07 ± 0.015, the relative viability ([9]; 0.1235 µM) was 1.07 ± 0.018 and the relative viability ([9]; 0.3704 µM) was 1.07 ± 0.028. The relative viability ([9]; 1.111 µM) was 1.1 ± 0.025, the relative viability ([9]; 3.333 µM) was 1.09 ± 0.029 and the relative viability ([9]; 10 µM) was 1.04 ± 0.024. For the same compound, the relative viability ([10]; 0.00017 µM) was 0.9823 ± 0.0076, the relative viability ([10]; 0.00051 µM) was 0.963 ± 0.028 and the relative viability ([10]; 0.00152 µM) was 0.9569 ± 0.0078. The relative viability ([10]; 0.00457 µM) was 0.968 ± 0.028, the relative viability ([10]; 0.01372 µM) was 0.96 ± 0.025 and the relative viability ([10]; 0.04115 µM) was 0.923 ± 0.013. The relative viability ([10]; 0.1235 µM) was 0.924 ± 0.017, the relative viability ([10]; 0.3704 µM) was 0.926 ± 0.025 and the relative viability ([10]; 1.111 µM) was 0.924 ± 0.046. For the same compound, the relative viability ([10]; 3.333 µM) was 0.934 ± 0.059, the relative viability ([10]; 10 µM) was 0.891 ± 0.059 and the relative viability ([11]; 0.00017 µM) was 1.032 ± 0.0056. The relative viability ([11]; 0.00051 µM) was 1.01 ± 0.031, the relative viability ([11]; 0.00152 µM) was 1.01 ± 0.025 and the relative viability ([11]; 0.00457 µM) was 0.99 ± 0.031. For the same compound, the relative viability ([11]; 0.01372 µM) was 0.973 ± 0.043, the relative viability ([11]; 0.04115 µM) was 0.976 ± 0.043 and the relative viability ([11]; 0.1235 µM) was 0.991 ± 0.043. The relative viability ([11]; 0.3704 µM) was 1 ± 0.035, the relative viability ([11]; 1.111 µM) was 0.999 ± 0.05 and the relative viability ([11]; 3.333 µM) was 0.975 ± 0.043. It also gave a relative viability ([11]; 10 µM) of 0.981 ± 0.072, a relative viability ([12]; 0.00017 µM) of 0.988 ± 0.014 and a relative viability ([12]; 0.00051 µM) of 0.993 ± 0.022. The relative viability ([12]; 0.00152 µM) was 1 ± 0.017, the relative viability ([12]; 0.00457 µM) was 1.03 ± 0.024 and the relative viability ([12]; 0.01372 µM) was 1 ± 0.01. For the same compound, the relative viability ([12]; 0.04115 µM) was 0.971 ± 0.07, the relative viability ([12]; 0.1235 µM) was 1.004 ± 0.0054 and the relative viability ([12]; 0.3704 µM) was 0.985 ± 0.025. The relative viability ([12]; 1.111 µM) was 1.02 ± 0.022, the relative viability ([12]; 3.333 µM) was 1.02 ± 0.015 and the relative viability ([12]; 10 µM) was 0.992 ± 0.04.
